Drawing on patent publication US20070167466A1, “"Pyrazolo [4,3-d]pyrimidines, processes for their preparation and methods of use"” (priority 2003, published 2007), this text covers IC50 for 32 compounds.

By IC50 is commonly meant the concentration at which inhibition is half-maximal.

Molecules are shown by their SMILES. Where two headings read alike, the source gives them in different places.

Test [1] relates to MCF7 (human breast adenocarcinoma). The test can be described thus: In vitro cytotoxic activity, Calcein AM, three days. In kind it is cell-based. As to the method:
(§1) We have been using the following cell lines: HELA (human cervical carcinoma), MCF7 (human breast adenocarcinoma), NIH 3T3 (mouse fibroblasts), HOS (human osteogenic sarcoma), HL 60 (human promyelocytic leukemia), G 361 (human malignant melanoma), K562 (human chronic myeloblastic leukemia), CEM (human lymphoblastoid leukaemia). Tested drugs were added to the cell cultures in six different concentration and kept at 37° C. and 5% CO2 for three days. All cell lines were grown in DMBM medium (Gibco BRL) supplemented with 10% (v/v) fetal bovine serum and L-glutamine and maintained at 37° C. in a humidified atmosphere with 5% CO2. 10^4 cells were seeded into each well of 96 well plate, allowed to stabilize for at least 2 h and then tested compounds were added at various concentrations ranging from 200 to 0.2 μM in triplicates. Three days after drug addition Calcein AM solution (Molecular Probes) was added and let to enter the cells for 1 hour. Fluorescence of viable cells was quantified employing Fluoroskan Ascent (Microsystems).

The test system of test [2] is K562 (human chronic myeloblastic leukemia). The test is described as above. Type of test: cell-based. To be noted: read-out: K-562 IC50. As to the method:
as §1

Test [3] has as its target T1, CDK1 (p34^cdc2, cyclin B) (Homo sapiens, UniProt P06493).
T1 construct: made in house; host or cells: Sf9 insect cells (baculovirus co-infection)
The test can be described thus: CDK inhibition assay, p34^cdc2 kinase, histone H1 phosphorylation. In kind it is biochemical. The following applies: 15 μM ATP, histone H1, 30° C. As for the experimental part: The controls contain suitable dilutions of DMSO.
2-glycerolphosphate, 1 mM NaF, 1 mM DTT

For test [4], the target named is CDK2 (p33^cdk2, cyclin E) (Homo sapiens, UniProt P24941). The test can be described thus: CDK inhibition assay, p33^cdk2 kinase, histone H1 phosphorylation.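 Also: Baculovirus-expressed kinase/cyclin complex from Sf9 cell extract, 10 min at 30 °C, phosphoproteins separated by SDS gel and quantified by image analysis, activity relative to DMSO control.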
The subject of test [5] is Cytokinin-dependent tobacco callus Nicotiana tabacum L. cv. Wisconsins 38. The test can be described thus: Tobacco callus bioassay for cytotoxicity (herbicidal activity). The following applies: four weeks. In kind it is cell-based. As for the experimental part:
The compounds to be tested were dissolved in dimethylsulfoxide (DMSO) and the solution brought up to 10^−3 M with distilled water. […] Cytokinin-dependent tobacco callus Nicotiana tabacum L. cv. […] Subcultivation was carried out every three weeks. Fourteen days before the bioassay, the callus tissue was transferred to the media without 6-benzylaminopurine. Compounds were tested with two different concentrations of 6-benzylaminopurine (10^−5 M and 10^−6 M). Inhibitory growth activity was determined from the increase in fresh callus weight after four weeks of cultivation. Five replicates were prepared for each concentration tested and the entire test was repeated at least twice.

Where [6] appears, read: Nicotiana tabacum, 672 h, read-out: IC50, growth of tobacco callus, 10^−5 M BAP, 10^−5 M 6-benzylaminopurine.
Where [7] appears, read: Nicotiana tabacum, 672 h, 10^−6 M 6-benzylaminopurine, read-out: IC50, growth of tobacco callus, 10^−6 M BAP.
[8] abbreviates: read-out: CDK2 IC50, 15 μM ATP, histone H1, 30° C.

T1 sequence (P06493 whole entry, species assumed): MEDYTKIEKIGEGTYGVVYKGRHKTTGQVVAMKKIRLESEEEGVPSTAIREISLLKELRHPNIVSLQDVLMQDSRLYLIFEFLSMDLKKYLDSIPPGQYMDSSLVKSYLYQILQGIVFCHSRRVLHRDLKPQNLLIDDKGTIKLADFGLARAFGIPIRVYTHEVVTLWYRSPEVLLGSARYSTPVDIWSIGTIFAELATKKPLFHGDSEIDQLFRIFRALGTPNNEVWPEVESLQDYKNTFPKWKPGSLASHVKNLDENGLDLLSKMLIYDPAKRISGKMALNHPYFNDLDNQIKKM
T1 sequence (P14635 whole entry partner, species assumed): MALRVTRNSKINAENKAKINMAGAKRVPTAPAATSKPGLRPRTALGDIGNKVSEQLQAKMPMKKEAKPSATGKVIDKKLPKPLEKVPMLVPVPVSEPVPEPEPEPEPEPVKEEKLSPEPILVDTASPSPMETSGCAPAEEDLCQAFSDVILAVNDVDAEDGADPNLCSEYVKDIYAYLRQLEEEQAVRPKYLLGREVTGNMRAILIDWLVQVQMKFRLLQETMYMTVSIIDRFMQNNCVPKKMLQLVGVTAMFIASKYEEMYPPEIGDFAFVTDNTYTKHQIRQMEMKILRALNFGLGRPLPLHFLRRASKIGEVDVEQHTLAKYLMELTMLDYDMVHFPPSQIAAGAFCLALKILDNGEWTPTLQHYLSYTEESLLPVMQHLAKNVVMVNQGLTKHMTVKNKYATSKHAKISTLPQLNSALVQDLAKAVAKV

In the case of `CC(C)c1n[nH]c2c(NCc3ccccc3Br)ncnc12` [2-bromobenzylamino / isopropyl, 7-(2-bromobenzyl)amino-3-isopropylpyrazolo[4,3-d]pyrimidine], the IC50 in test [1] (Homo sapiens, MCF7, 72 h) is 42 µM; in test [2] (Homo sapiens, K562, 72 h) it was 57 µM; in test [3] it was 7 µM; in test [4], 9 µM.
In the case of `CC(C)c1n[nH]c2c(NCc3ccccc3Cl)ncnc12` [2-chlorobenzylamino / isopropyl], the IC50 in test [5] (setting [6]) was 31 µM; in test [5] (setting [7]), 4.6 µM; in test [1] (Homo sapiens, MCF7, 72 h), 15 µM; in test [2] (Homo sapiens, K562, 72 h), 21 µM; in test [3] it was 2.1 µM; in test [4], 2 µM.
Turning to `CCc1n[nH]c2c(NCc3ccccc3O)ncnc12` [2-hydroxybenzylamino / ethyl], the IC50 in test [1] (Homo sapiens, MCF7, 72 h) is 63 µM; in test [2] (Homo sapiens, K562, 72 h) it was 51 µM; in test [3], 6.2 µM; in test [4] it was 7 µM.
In the same order, the values of `CC(C)c1n[nH]c2c(NCc3ccccc3O)ncnc12` [2-hydroxybenzylamino / isopropyl, 7-(2-hydroxybenzyl)amino-3-isopropylpyrazolo[4,3-d]pyrimidine] are 63 µM, 50 µM, 0.4 µM and 0.27 µM.
Regarding `Cc1n[nH]c2c(NCc3ccccc3O)ncnc12` [2-hydroxybenzylamino / methyl], the IC50 is 67 µM in test [1] (Homo sapiens, MCF7, 72 h); 55 µM in test [2] (Homo sapiens, K562, 72 h); 4 µM in test [3]; 5.2 µM in test [4].
On to `CC(C)c1n[nH]c2c(Nc3ccc(Cl)c(N)c3)ncnc12` [3-amino-4-chloroanilino / isopropyl], for which the IC50 was 0.2 µM in test [1] (Homo sapiens, MCF7, 72 h); 0.3 µM in test [2] (Homo sapiens, K562, 72 h); 2.9 µM in test [3]; 3 µM in test [4].
The like results for `CC(C)c1n[nH]c2c(Nc3ccc(O)c(C(=O)O)c3)ncnc12` [3-carboxy-4-hydroxyanilino / isopropyl] were, in that order, 12 µM, 25 µM, 3.1 µM and 4.2 µM.
For the compound `CC(C)c1n[nH]c2c(Nc3ccc(N)c(Cl)c3)ncnc12` [3-chloro-4-aminoanilino / isopropyl], the IC50 in test [1] (Homo sapiens, MCF7, 72 h) is 12 µM; in test [2] (Homo sapiens, K562, 72 h), 13 µM; in test [3], 2.9 µM; in test [4], 3 µM.
In the same order, the values of `CC(C)c1n[nH]c2c(Nc3ccc(C(=O)O)c(Cl)c3)ncnc12` [3-chloro-4-carboxyanilino / isopropyl] are 46 µM, 69 µM, 2.5 µM and 2.8 µM.
In the same order, the values of `CC(C)c1n[nH]c2c(Nc3cc(N)cc(Cl)c3)ncnc12` [3-chloro-5-aminoanilino / isopropyl] are 29 µM, 35 µM, 6.1 µM and 5.8 µM.
On to `CCc1n[nH]c2c(Nc3cccc(Cl)c3)ncnc12` [3-chloroanilino / ethyl], for which the IC50 in test [1] (Homo sapiens, MCF7, 72 h) is 19 µM; in test [2] (Homo sapiens, K562, 72 h) it was 28 µM; in test [3] it was 24 µM; in test [4], 18 µM.
As for `CCc1n[nH]c2c(NCc3cccc(O)c3)ncnc12` [3-hydroxybenzylamino / ethyl], the IC50 in test [1] (Homo sapiens, MCF7, 72 h) was 111 µM; in test [2] (Homo sapiens, K562, 72 h) it was 132 µM; in test [3] it was 6 µM; in test [4] it was 3.2 µM.
In the same order, the values of `Cc1n[nH]c2c(NCc3cccc(O)c3)ncnc12` [3-hydroxybenzylamino / methyl] are 119 µM, 143 µM, 5.5 µM and 7.2 µM.
Consider `CC(C)c1n[nH]c2c(Nc3ccc(Br)cc3)ncnc12` [4-bromoanilino / isopropyl], for which the IC50 in test [1] (Homo sapiens, MCF7, 72 h) is 5 µM; in test [2] (Homo sapiens, K562, 72 h), 7 µM; in test [3] it was 1.7 µM; in test [4], 1.9 µM.
In the same order, the values of `CC(C)c1n[nH]c2c(Nc3ccc(Cl)cc3)ncnc12` [4-chloroanilino / isopropyl] are 3 µM, 4 µM, 2.1 µM and 3.1 µM.
`CC(C)c1n[nH]c2c(NCc3ccc(Cl)cc3)ncnc12` [4-chlorobenzylamino / isopropyl]: the IC50 in test [5] (setting [6]) is 12.1 µM; in test [5] (setting [7]) it was 4.7 µM; in test [3] it was 1.8 µM; in test [4], 1.1 µM.
Turning to `CC(C)c1n[nH]c2c(NCc3ccc(O)cc3)ncnc12` [4-hydroxybenzylamino / isopropyl, 7-(4-hydroxybenzyl)amino-3-isopropylpyrazolo[4,3-d]pyrimidine], the IC50 in test [1] (Homo sapiens, MCF7, 72 h) was 152 µM; in test [2] (Homo sapiens, K562, 72 h) it was more than 167 µM; in test [3], 1.8 µM; in test [4], 0.2 µM.
On to `Cc1n[nH]c2c(NCc3ccc(O)cc3)ncnc12` [4-hydroxybenzylamino / methyl], for which the IC50 in test [1] and in test [2] was more than 167 µM throughout.
Regarding `CCc1n[nH]c2c(NCc3ccc(OC)cc3)ncnc12` [4-methoxybenzylamino / ethyl], the values for the IC50 in test [1] and in test [2] were 31 µM and 48 µM, respectively.
The like results for `COc1ccc(CNc2ncnc3c(C)n[nH]c23)cc1` [4-methoxybenzylamino / methyl] were, in that order, 35 µM and 53 µM.
Turning to `COc1ccc(CNc2ncnc3c(C(C)C)n[nH]c23)cc1O` [7-(3-hydroxy-4-methoxybenzyl)amino-3-isopropylpyrazolo[4,3d]pyrimidine], the IC50 is 45 µM in test [1], 68 µM in test [2], 0.9 µM in test [3] and 0.2 µM in test [4] (setting [8]).
As for `CC(C)c1n[nH]c2c(NC3CCC(N)CC3)ncnc12` (stereo not shown) [(4-aminocyclohexyl)amino / isopropyl], the IC50 in test [1] was 68 µM; in test [2], 107 µM; in test [3], 80 µM; in test [4] (setting [8]), 70 µM.
Consider `Cn1cnc2c(NCc3ccccc3)nc(NCCO)nc21` [Olomoucine, reference compound], for which the IC50 in test [5] (setting [6]) was more than 50 µM; in test [5] (setting [7]), more than 50 µM; in test [1] (Homo sapiens, MCF7, 72 h), 132 µM; in test [2] (Homo sapiens, K562, 72 h), more than 167 µM.
On to `CCc1n[nH]c2c(NCc3ccccc3)ncnc12` [benzylamino / ethyl], for which the IC50 was 62 µM in test [1] (Homo sapiens, MCF7, 72 h); 81 µM in test [2] (Homo sapiens, K562, 72 h); 12 µM in test [3]; 11 µM in test [4].
`Cc1n[nH]c2c(NCc3ccccc3)ncnc12` [benzylamino / methyl]: the IC50 in test [1] is 67 µM; in test [2] it was 29 µM.
Regarding `CCc1n[nH]c2c(NC3CCC3)ncnc12` [cyclobutylamino / ethyl], the IC50 in test [1] (Homo sapiens, MCF7, 72 h) was 82 µM; in test [2] (Homo sapiens, K562, 72 h), 94 µM; in test [3], 27 µM; in test [4], 25 µM.
As for `CC(C)c1n[nH]c2c(NC3CCC3)ncnc12` [cyclobutylamino / isopropyl], the half-maximal inhibitory concentration (IC50) in test [5] (10^−6 M 6-benzylaminopurine, read-out: IC50, growth of tobacco callus, 10^−6 M BAP) is 4.3 µM; in test [5] (read-out: IC50, growth of tobacco callus, 10^−5 M BAP, 10^−5 M 6-benzylaminopurine) it was 12.1 µM; in test [1] it was 45 µM; in test [2], 60 µM.
Regarding `Cc1n[nH]c2c(NC3CCC3)ncnc12` [cyclobutylamino / methyl], the IC50 in test [1] (Homo sapiens, MCF7, 72 h) was 89 µM; in test [2] (Homo sapiens, K562, 72 h), 101 µM; in test [3], 35 µM; in test [4], 28 µM.
Consider `CC(C)c1n[nH]c2c(NC3CCCC3)ncnc12` [cyclopentylamino / isopropyl], for which the IC50 in test [5] (setting [6]) was determined as 15.6 µM; in test [5] (setting [7]) it was 8.4 µM; in test [3], 18 µM; in test [4], 20 µM.
For `CCc1n[nH]c2c(NCc3ccco3)ncnc12` [furfurylamino / ethyl], the IC50 in test [1] (Homo sapiens, MCF7, 72 h) is 135 µM; in test [2] (Homo sapiens, K562, 72 h), more than 167 µM; in test [3], 8.2 µM; in test [4], 5.3 µM.
As for `CCCCCNc1ncnc2c(CC)n[nH]c12` [pentylamino / ethyl], the IC50 in test [1] is 41 µM; in test [2], 62 µM.
Consider `CCCCCNc1ncnc2c(C)n[nH]c12` [pentylamino / methyl], for which the results for the IC50 in test [1] and in test [2] were 45 µM and 67 µM, respectively.
